CC(C)=CCOc1c2ccoc2cc2oc(=O)ccc12
solubility (mole fraction) (in ethanol, 288.2 K): 0.00263
solubility (mole fraction) (in ethanol, 293.2 K): 0.00377
solubility (mole fraction) (in ethanol, 298.2 K): 0.00531
solubility (mole fraction) (in ethanol, 303.2 K): 0.00733
solubility (mole fraction) (in ethanol, 308.2 K): 0.00999
solubility (mole fraction) (in ethanol, 313.2 K): 0.0134
solubility (mole fraction) (in ethanol, 318.2 K): 0.0178
solubility (mole fraction) (in ethanol, 323.2 K): 0.023
solubility (mole fraction) (in ethanol, 328.2 K): 0.03
solubility (mole fraction) (in water, 288.2 K): 6.03e-07
solubility (mole fraction) (in water, 293.2 K): 7.42e-07
solubility (mole fraction) (in water, 298.2 K): 9.34e-07
solubility (mole fraction) (in water, 303.2 K): 1.02e-06
solubility (mole fraction) (in water, 308.2 K): 1.16e-06
solubility (mole fraction) (in water, 313.2 K): 1.29e-06
solubility (mole fraction) (in water, 318.2 K): 1.68e-06
solubility (mole fraction) (in water, 323.2 K): 2.17e-06
solubility (mole fraction) (in water, 328.2 K): 2.79e-06
